Assay results as given in US20120053165A1, “Novel Phenyl Imidazoles and Phenyl Triazoles As Gamma-Secretase Modulators” (Pfizer Inc., priority 2009, published 2012).

System: production of amyloid beta protein Aβ(1-42) in human WT-APP overexpressing CHO cells
Details: Homo sapiens, CHO, read-out: Aβ 42 IC50
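Note: Aβ(1-42) released into conditioned medium captured by ELISA after roughly 24 h compound exposure, vehicle and inhibitor controls defining maximal and minimal inhibition.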
Procedure: Cell-Based γ-Secretase Assay with ELISA Readout
The ability of compounds to modulate production of amyloid beta protein Aβ(1-42) was determined using human WT-APP overexpressing CHO cells. Cells were plated at 22,000 cells/100 μL well in 96 well tissue culture treated, clear plates (Falcon) in DMEM/F12 based medium and incubated for 24 hours at 37° C. […] Compounds were added in fresh medium to achieve 1% final DMSO. Appropriate vehicle and inhibitor controls were added to obtain maximum and minimum inhibition values for the assay before the plates were incubated for about 24 hours at 37° C.
Coating of ELISA assay plates was initiated by addition of 50 μL/well of an in house Aβ(1-42) specific antibody at (4 μg/mL) in 0.1 M NaHCO3 (pH 9.0) into black 384-well Maxisorp® plates (Nunc) and incubated overnight at 4° C. […] Ambient temperature incubation was allowed to proceed for a minimum of two hours before washing 2×100 μL with Wash Buffer (Dulbecco's PBS, 0.05% Tween 20). Assay Buffer (Dulbecco's PBS, 1.0% BSA (Sigma A7030), 0.05% Tween 20) 20 μL/well is then added.
After incubation overnight at 37° C., 5% CO2, 40 μL (in duplicate) of experimental conditioned media are transferred into wells of the blocked ELISA plates containing the capture antibody, followed by overnight incubation at 4° C.
After overnight incubation of the ELISA assay plates at 4° C., unbound Aβ peptides were removed thorough (4×100 μL) washes with Wash Buffer.

SMILES | IC50
COc1cc(C(=O)NCCc2ccccc2Cl)ccc1-n1cnc(C)c1 [Example 79, N-[2-(2-chlorophenyl)ethyl]-3-methoxy-4-(4-methyl-1H-imidazol-1-yl)benzamide] | 495 nM
COc1cc(C(=O)NCCc2ccc(Cl)cc2)ccc1-n1cnc(C)c1 [Example 103, N-[2-(4-chlorophenyl)ethyl]-3-methoxy-4-(4-methyl-1H-imidazol-1-yl)benzamide] | 698 nM
CCOc1ccccc1CCNC(=O)c1ccc(-n2cnc(C)c2)c(OC)c1 [Example 104, N-[2-(2-ethoxyphenyl)ethyl]-3-methoxy-4-(4-methyl-1H-imidazol-1-yl)benzamide] | 698 nM
CCOc1cccc(CCNC(=O)c2ccc(-n3cnc(C)c3)c(OC)c2)c1 [Example 112, N-[2-(3-ethoxyphenyl)ethyl]-3-methoxy-4-(4-methyl-1H-imidazol-1-yl)benzamide] | 765 nM

Same assay, conditions: Homo sapiens, CHO, read-out: Aβ 42 IC50, Geometric mean of 2-8 determinations; human WT-APP overexpressing CHO cells

SMILES | IC50
COc1cc(C(=O)NCc2ccc(F)cc2Cl)ccc1-n1cnc(C)c1 [Example 76, N-(2-chloro-4-fluorobenzyl)-3-methoxy-4-(4-methyl-1H-imidazol-1-yl)benzamide] | 476 nM
COc1cc(C(=O)NCCCc2ccc(F)cc2)ccc1-n1cnc(C)c1 [Example 81, N-[3-(4-fluorophenyl)propyl]-3-methoxy-4-(4-methyl-1H-imidazol-1-yl)benzamide] | 504 nM
COc1cc(C(=O)N2CCCC(Oc3ccccc3C(C)C)C2)ccc1-n1cnc(C)c1 (stereo not drawn) [Example 85, 3-(2-isopropylphenoxy)-1-[3-methoxy-4-(4-methyl-1H-imidazol-1-yl)benzoyl]piperidine] | 533 nM
COc1cc(C(=O)NCc2nc3cc(Cl)c(C)cc3o2)ccc1-n1cnc(C)c1 [Example 86, N-[(5-chloro-6-methyl-1,3-benzoxazol-2-yl)methyl]-3-methoxy-4-(4-methyl-1H-imidazol-1-yl)benzamide] | 544 nM
COc1cc(C(=O)NCc2cc3cc(F)ccc3[nH]2)ccc1-n1cnc(C)c1 [Example 89, N-[(5-fluoro-1H-indol-2-yl)methyl]-3-methoxy-4-(4-methyl-1H-imidazol-1-yl)benzamide] | 570 nM
COc1cc(C(=O)N2CCC(Oc3ccccc3C(F)(F)F)CC2)ccc1-n1cnc(C)c1 [Example 91, 1-[3-methoxy-4-(4-methyl-1H-imidazol-1-yl)benzoyl]-4-[2-(trifluoromethyl)phenoxy]piperidine] | 588 nM
COc1cc(C(=O)N2CCC(Oc3ccccc3OC(F)(F)F)CC2)ccc1-n1cnc(C)c1 [Example 93, 1-[3-methoxy-4-(4-methyl-1H-imidazol-1-yl)benzoyl]-4-[2-(trifluoromethoxy)phenoxy]piperidine] | 602 nM
COc1cc(C(=O)N2CCC(c3cccc(Cl)c3)C2)ccc1-n1cnc(C)c1 (stereo not drawn) [Example 98, 1-(4-{[3-(3-chlorophenyl)pyrrolidin-1-yl]carbonyl}-2-methoxyphenyl)-4-methyl-1H-imidazole] | 642 nM
COc1cc(C(=O)NCC2(c3ccccc3)CC2)ccc1-n1cnc(C)c1 [Example 101, 3-methoxy-4-(4-methyl-1H-imidazol-1-yl)-N-[(1-phenylcyclopropyl)methyl]benzamide] | 686 nM
COc1cc(C(=O)NC2CCCc3c(O)cccc32)ccc1-n1cnc(C)c1 (stereo not drawn) [Example 106, N-(5-hydroxy-1,2,3,4-tetrahydronaphthalen-1-yl)-3-methoxy-4-(4-methyl-1H-imidazol-1-yl)benzamide] | 731 nM
COc1cc(C(=O)NC(c2ccc(F)cc2)c2nc3ccccc3n2C)ccc1-n1cnc(C)c1 (stereo not drawn) [Example 107, N-[(4-fluorophenyl)(1-methyl-1H-benzimidazol-2-yl)methyl]-3-methoxy-4-(4-methyl-1H-imidazol-1-yl)benzamide] | 735 nM
COc1ccc(OC)c(C2CCN(C(=O)c3ccc(-n4cnc(C)c4)c(OC)c3)C2)c1 (stereo not drawn) [Example 109, 1-(4-{[3-(2,5-dimethoxyphenyl)pyrrolidin-1-yl]carbonyl}-2-methoxyphenyl)-4-methyl-1H-imidazole] | 739 nM
COc1cc(C(=O)NCC(c2ccc(C(F)(F)F)cc2)N2CCOCC2)ccc1-n1cnc(C)c1 (stereo not drawn) [Example 111, 3-methoxy-4-(4-methyl-1H-imidazol-1-yl)-N-{2-morpholin-4-yl-2-[4-(trifluoromethyl)phenyl]ethyl}benzamide] | 756 nM

Same assay, conditions: Homo sapiens, CHO, read-out: Aβ 42 IC50, Single IC50 determination; human WT-APP overexpressing CHO cells

SMILES | IC50
COc1cc(C(=O)N2CC(Oc3cc(Cl)ccc3Cl)C2)ccc1-n1cnc(C)c1 [Example 108, 1-(4-{[3-(2,5-dichlorophenoxy)azetidin-1-yl]carbonyl}-2-methoxyphenyl)-4-methyl-1H-imidazole] | 738 nM

Same assay, conditions: read-out: Aβ 42 IC50

SMILES | IC50
COc1cc(C(=O)N[C@@H](C)c2ccc(C)cc2)ccc1-n1cnc(C)c1 [Example 110, 3-methoxy-4-(4-methyl-1H-imidazol-1-yl)-N-[(1S)-1-(4-methylphenyl)ethyl) benzamide] | 747 nM

Same assay, conditions: read-out: Aβ 42 IC50; Geometric mean of 2-8 determinations; human WT-APP overexpressing CHO cells

SMILES | IC50
COc1cc(C(=O)NCc2cccc(C(F)(F)F)c2F)ccc1-n1cnc(C)c1 [Example 77, N-[2-fluoro-3-(trifluoromethyl)benzyl]-3-methoxy-4-(4-methyl-1H-imidazol-1-yl) benzamide] | 481 nM
COc1cc(C(=O)NC2(c3ccc(Cl)cc3)CC2)ccc1-n1cnc(C)c1 [Example 78, N-[1-(4-chlorophenyl)cyclopropyl]-3-methoxy-4-(4-methyl-1H-imidazol-1-yl) benzamide] | 488 nM
COc1cc(C(=O)N[C@H](c2ccccc2)[C@@H](O)c2ccccc2)ccc1-n1cnc(C)c1 [Example 80, N-[(1R,2S)-2-hydroxy-1,2-diphenylethyl]-3-methoxy-4-(4-methyl-1H-imidazol-1-yl) benzamide] | 501 nM
COc1cc(C(=O)NCc2cc(C)ccc2C)ccc1-n1cnc(C)c1 [Example 82, N-(2,5-dimethylbenzyl)-3-methoxy-4-(4-methyl-1H-imidazol-1-yl) benzamide] | 513 nM
COc1cc(C(=O)NCc2ccc(C(F)(F)F)c(F)c2)ccc1-n1cnc(C)c1 [Example 83, N-[3-fluoro-4-(trifluoromethyl)benzyl]-3-methoxy-4-(4-methyl-1H-imidazol-1-yl) benzamide] | 514 nM
COc1cc(C(=O)NCc2cccc(Cl)c2)ccc1-n1cnc(C)c1 [Example 84, N-(3-chlorobenzyl)-3-methoxy-4-(4-methyl-1H-imidazol-1-yl) benzamide] | 520 nM
COc1cc(C(=O)NCc2cc3ccccc3s2)ccc1-n1cnc(C)c1 [Example 87, N-(1-benzothien-2-ylmethyl)-3-methoxy-4-(4-methyl-1H-imidazol-1-yl) benzamide] | 560 nM
COc1cc(C(=O)NC(C)Cc2ccc(C(F)(F)F)cc2)ccc1-n1cnc(C)c1 (stereo not drawn) [Example 88, 3-methoxy-4-(4-methyl-1H-imidazol-1-yl)-N-{1-methyl-2-[4-(trifluoromethyl)phenyl]ethyl} benzamide] | 561 nM
COc1cc(C(=O)NCCOc2ccccc2Cl)ccc1-n1cnc(C)c1 [Example 90, N-[2-(2-chlorophenoxy)ethyl]-3-methoxy-4-(4-methyl-1H-imidazol-1-yl) benzamide] | 573 nM
COc1cc(C(=O)NC2(Cc3cccc(Cl)c3)CC2)ccc1-n1cnc(C)c1 [Example 92, N-[1-(3-chlorobenzyl)cyclopropyl]-3-methoxy-4-(4-methyl-1H-imidazol-1-yl) benzamide] | 595 nM
COc1cc(C(=O)NCc2nc(-c3ccc(C(F)(F)F)c(F)c3)no2)ccc1-n1cnc(C)c1 [Example 94, N-({3-[3-fluoro-4-(trifluoromethyl)phenyl]-1,2,4-oxadiazol-5-yl}methyl)-3-methoxy-4-(4-methyl-1H-imidazol-1-yl) benzamide] | 610 nM
COc1cc(C(=O)N[C@@H]2CCC[C@@H]2Cc2cccc(F)c2)ccc1-n1cnc(C)c1 [Example 95, N-[(1R,2R)-2-(3-fluorobenzyl)cyclopentyl]-3-methoxy-4-(4-methyl-1H-imidazol-1-yl) benzamide] | 627 nM
COc1cc(C(=O)NC(c2ccccc2Cl)c2nc3ccccc3n2C)ccc1-n1cnc(C)c1 (stereo not drawn) [Example 96, N-[(2-chlorophenyl)(1-methyl-1H-benzimidazol-2-yl)methyl]-3-methoxy-4-(4-methyl-1H-imidazol-1-yl) benzamide] | 630 nM
COc1cc(C(=O)NCCc2c[nH]c3ccc(C)cc23)ccc1-n1cnc(C)c1 [Example 97, 3-methoxy-4-(4-methyl-1H-imidazol-1-yl)-N-[2-(5-methyl-1H-indol-3-yl)ethyl] benzamide] | 634 nM
COc1cc(C(=O)NC(C)c2ccc3[nH]ccc3c2)ccc1-n1cnc(C)c1 (stereo not drawn) [Example 99, N-[1-(1H-indol-5-yl)ethyl]-3-methoxy-4-(4-methyl-1H-imidazol-1-yl) benzamide] | 665 nM
COc1cc(C(=O)NC(C)CCc2ccccc2)ccc1-n1cnc(C)c1 (stereo not drawn) [Example 100, 3-methoxy-4-(4-methyl-1H-imidazol-1-yl)-N-(1-methyl-3-phenylpropyl) benzamide] | 667 nM
COc1cc(C(=O)NCc2c(C)cccc2NS(C)(=O)=O)ccc1-n1cnc(C)c1 [Example 102, 3-methoxy-4-(4-methyl-1H-imidazol-1-yl)-N-{2-methyl-6-[(methyl-sulfonyl)amino]benzyl} benzamide] | 689 nM
COc1ccc(C2(CNC(=O)c3ccc(-n4cnc(C)c4)c(OC)c3)CCCC2)cc1 [Example 105, 3-methoxy-N-{[1-(4-methoxyphenyl)cyclopentyl]methyl}-4-(4-methyl-1H-imidazol-1-yl) benzamide] | 708 nM
COc1cc(C(=O)NCC2CCc3ccccc3C2)ccc1-n1cnc(C)c1 (stereo not drawn) [Example 113, 3-methoxy-4-(4-methyl-1H-imidazol-1-yl)-N-(1,2,3,4-tetrahydro-naphthalen-2-ylmethyl) benzamide] | 784 nM
COc1cc(C(=O)NC2CCc3ccccc3C2)ccc1-n1cnc(C)c1 (stereo not drawn) [Example 114, 3-methoxy-4-(4-methyl-1H-imidazol-1-yl)-N-(1,2,3,4-tetrahydro-naphthalen-2-yl) benzamide] | 793 nM
